Holding throughout (type): functional, organism-based
Experiment [1] has as its system Escherichia coli. The experiment is described as follows: The ability of the artificial siderophores to support the growth of Escherichia coli strain AN 193 was evaluated at the concentration of 50 and 500 uM; No growth around the disc.
For experiment [2], the system named is Escherichia coli. The experiment is described as follows: The ability of the artificial siderophores to support the growth of Escherichia coli strain RWB7 was evaluated at the concentration of 50 and 500 uM; No growth around the disc.
In experiment [3] the test system is Escherichia coli. The experiment is described as follows: The ability of the artificial siderophores to support the growth of Escherichia coli strain RWB7 was evaluated at the concentration of 50 uM; No growth around the disc.
Experiment [4] deals with Escherichia coli. The experiment in a line: The ability of the artificial siderophores to support the growth of Escherichia coli strain BN 3300 was evaluated at the concentration of 50 uM; No growth around the disc.
Experiment [5] deals with Escherichia coli. The experiment is described as follows: The ability of the artificial siderophores to support the growth of Escherichia coli strain AN 193 was evaluated at the concentration of 50 uM; No growth around the disc.
In experiment [6] the test system is Escherichia coli. The experiment is described as follows: The ability of the artificial siderophores to support the growth of Escherichia coli strain BN 3306 was evaluated at the concentration of 50 uM; No growth around the disc.
The subject of experiment [7] is Escherichia coli. The experiment in a line: The ability of the artificial siderophores to support the growth of Escherichia coli strain BN 3300 was evaluated at the concentration of 50 and 500 uM; No growth around the disc.
Experiment [8] concerns Escherichia coli. The experiment is described as follows: The ability of the artificial siderophores to support the growth of Escherichia coli strain BN 3306 was evaluated at the concentration of 50 and 500 uM; No growth around the disc.
Experiment [9] deals with Escherichia coli. The experiment in a line: The ability of the artificial siderophores to support the growth of Escherichia coli strain RWB7 was evaluated at the concentration of 25 uM; No growth around the disc.
Experiment [10] deals with Escherichia coli. The experiment is described as follows: The ability of the artificial siderophores to support the growth of Escherichia coli strain RW 193 was evaluated at the concentration of 50 and 500 uM; No growth around the disc.

Our source for the Inhibitory diameter values is ChEMBL document CHEMBL1122957, “Artificial siderophores. 2. Syntheses of trihydroxamate analogues of rhodotorulic acid and their biological iron transport capabilities in Escherichia coli” (1985).

Regarding `CC(=O)N(O)CCCn1c(=O)n(CCCN(O)C(C)=O)c(=O)n(CCCN(O)C(C)=O)c1=O`, the Inhibitory diameter result in the experiment with Escherichia coli [1] and in the experiment with Escherichia coli [2] was “Not toxic” in each case.

With FERRICHROME, the Inhibitory diameter entry with Escherichia coli [3], in the experiment on Escherichia coli [4], with Escherichia coli [5] and with Escherichia coli [6] was “Not toxic” each time.

Turning to `CN(O)C(=O)CCCCCn1c(=O)n(CCCCCC(=O)N(C)O)c(=O)n(CCCCCC(=O)N(C)O)c1=O`, the Inhibitory diameter entry in the experiment on Escherichia coli [7], in the experiment with Escherichia coli [1], in the experiment on Escherichia coli [8] and in the experiment on Escherichia coli [2] was “Not toxic” throughout.

As to `CC(=O)N(O)CCCCn1c(=O)n(CCCCN(O)C(C)=O)c(=O)n(CCCCN(O)C(C)=O)c1=O`, the Inhibitory diameter result in the experiment on Escherichia coli [2] was “Not toxic”.

In the case of `O=C(N[C@H]1COC(=O)[C@@H](NC(=O)c2cccc(O)c2O)COC(=O)[C@@H](NC(=O)c2cccc(O)c2O)COC1=O)c1cccc(O)c1O`, the Inhibitory diameter result in the experiment on Escherichia coli [9] was “Not toxic”.

On to `CC(=O)N(O)CCCCCn1c(=O)n(CCCCCN(O)C(C)=O)c(=O)n(CCCCCN(O)C(C)=O)c1=O`, for which the Inhibitory diameter result in the experiment on Escherichia coli [1] and with Escherichia coli [2] was “Not toxic” in each case.

As to `CN(O)C(=O)CCCCCn1c(=O)[nH]c(=O)n(CCCCCC(=O)N(C)O)c1=O`, the Inhibitory diameter entry in the experiment with Escherichia coli [7], in the experiment on Escherichia coli [10], with Escherichia coli [1], with Escherichia coli [8] and in the experiment with Escherichia coli [2] was “Not toxic” throughout.

Consider `CC(=O)N(O)CCC[C@@H]1NC(=O)[C@H](CCCN(O)C(C)=O)NC1=O`, for which the Inhibitory diameter result in the experiment with Escherichia coli [3], in the experiment on Escherichia coli [4] and in the experiment on Escherichia coli [6] was “Not toxic” each time.
